Experimental data published in PMC2893389 (Biochemistry, 2010).
“And” between values parts separate entries of the source, which are not always exact repeats. Equal entries are not always repeated. Where two headings read alike, the source gives them in different places. One block for each molecule: values may come before it.

What was measured:
[1] = biological target: T1, A467G PEPCK (rat cPEPCK mutant) (Rattus norvegicus, UniProt P07379, A467G); experiment: Assay A: OAA+GTP→PEP+CO2+GDP, coupled PK/LDH assay; assay type: biochemical
T1 sequence (P07379 1-622 A467G): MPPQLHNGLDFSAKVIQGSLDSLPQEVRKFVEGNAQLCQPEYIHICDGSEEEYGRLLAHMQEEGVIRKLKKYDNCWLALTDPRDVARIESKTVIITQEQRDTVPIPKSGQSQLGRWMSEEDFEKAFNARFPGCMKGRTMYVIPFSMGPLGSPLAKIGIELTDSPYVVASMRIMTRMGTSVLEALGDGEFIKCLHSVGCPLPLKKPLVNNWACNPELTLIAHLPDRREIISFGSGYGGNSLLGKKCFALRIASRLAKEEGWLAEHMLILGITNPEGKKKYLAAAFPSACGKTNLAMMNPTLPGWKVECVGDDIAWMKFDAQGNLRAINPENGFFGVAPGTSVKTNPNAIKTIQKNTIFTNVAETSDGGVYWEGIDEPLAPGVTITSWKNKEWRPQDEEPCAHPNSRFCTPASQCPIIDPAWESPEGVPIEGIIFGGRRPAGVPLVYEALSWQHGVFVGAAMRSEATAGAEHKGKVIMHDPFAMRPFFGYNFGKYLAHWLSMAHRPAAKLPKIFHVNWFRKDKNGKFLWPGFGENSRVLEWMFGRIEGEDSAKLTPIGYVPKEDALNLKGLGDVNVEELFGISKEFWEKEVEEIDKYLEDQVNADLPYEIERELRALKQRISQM

[2] = biological target: T1, A467G PEPCK (rat cPEPCK mutant); experiment: Inhibitor assays with substrate analogues; conditions: for change in affinity, A467G vs WT: from Ki values of the inhibition experiments
[3] = biological target: T2, WT rat cPEPCK (Rattus norvegicus, UniProt P07379); experiment: Inhibitor assays with substrate analogues
T2 sequence (P07379 1-622): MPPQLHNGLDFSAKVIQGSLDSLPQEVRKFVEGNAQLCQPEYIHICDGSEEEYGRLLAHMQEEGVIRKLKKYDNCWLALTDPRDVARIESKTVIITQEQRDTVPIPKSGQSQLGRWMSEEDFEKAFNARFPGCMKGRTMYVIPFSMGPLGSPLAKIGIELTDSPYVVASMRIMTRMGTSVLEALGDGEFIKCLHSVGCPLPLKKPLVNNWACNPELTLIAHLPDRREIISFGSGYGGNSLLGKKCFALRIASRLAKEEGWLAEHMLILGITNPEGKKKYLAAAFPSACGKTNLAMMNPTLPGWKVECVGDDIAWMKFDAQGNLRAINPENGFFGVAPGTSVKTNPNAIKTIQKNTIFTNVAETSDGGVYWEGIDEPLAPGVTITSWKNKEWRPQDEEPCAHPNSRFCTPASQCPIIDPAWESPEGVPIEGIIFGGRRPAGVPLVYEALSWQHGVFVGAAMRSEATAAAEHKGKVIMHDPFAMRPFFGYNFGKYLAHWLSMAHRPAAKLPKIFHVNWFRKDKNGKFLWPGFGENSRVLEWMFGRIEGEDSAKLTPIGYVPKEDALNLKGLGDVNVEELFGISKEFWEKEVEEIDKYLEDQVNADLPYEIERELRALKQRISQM

[4] = biological target: PEPCK; conditions: pyruvate only weakly associates with PEPCK; cited from earlier work
[5] = biological target: T1, A467G PEPCK (rat cPEPCK mutant); experiment: Assay B: PEP+GDP+CO2→OAA+GTP, coupled MDH assay; assay type: biochemical
[6] = biological target: T2, WT rat cPEPCK; experiment: Assay C: OAA+GTP→pyruvate+GTP+CO2; assay type: biochemical; conditions: WT PEPCK; GTPγS in place of GTP
[7] = biological target: T2, WT rat cPEPCK; experiment: Assay A: OAA+GTP→PEP+CO2+GDP, coupled PK/LDH assay; assay type: biochemical
[8] = biological target: T1, A467G PEPCK (rat cPEPCK mutant); experiment: Assay D: OAA+GDP→pyruvate+GDP+CO2; assay type: biochemical
[9] = biological target: T2, WT rat cPEPCK; experiment: Assay B: PEP+GDP+CO2→OAA+GTP, coupled MDH assay; assay type: biochemical; conditions: Wild-type, 25 °C
[10] = substrate: O=C(O)CC(=O)C(=O)O; experiment: purified protein, by the assay type; assay type: biochemical, rat; conditions: OAA + GDP → Pyruvate + GDP + CO2, 25 °C
[11] = WT PEPCK, slow substrate GTPγS in place of GTP, OAA→PEP

Molecule: CC(=O)C(=O)O [pyruvate]
Ki [4]: 9000 µM

Molecule: O=C(O)C(=O)CS(=O)(=O)O [βSP, 3-sulfopyruvate]
change in affinity, A467G vs WT [2]: factor of approximately two
Ki ([3]; Wild-type, assay A, against OAA, competitive (slope) Ki, 25 °C): 26 ± 1 µM

Molecule: O=C(O)CC(=O)C(=O)O [OAA, oxaloacetic acid]
efficiency of WT relative to A467G at catalyzing decarboxylation of OAA [8]: 20 fold
kcat/KM of A467G as % of WT ([1]; assay A, OAA→PEP): 1.9% and 2%
KM of A467G relative to WT ([1]; assay A, OAA→PEP, higher in A467G): 14 fold

Molecule: Nc1nc2c(ncn2[C@@H]2O[C@H](COP(=O)(O)OP(=O)(O)O)[C@@H](O)[C@H]2O)c(=O)[nH]1 [GDP, guanosine-5′-diphosphate]
kcat/KM of A467G as % of WT ([5]; assay B, PEP→OAA): 3%

B1: WT rat cPEPCK (Rattus norvegicus) (protein)
chain: MPPQLHNGLDFSAKVIQGSLDSLPQEVRKFVEGNAQLCQPEYIHICDGSEEEYGRLLAHMQEEGVIRKLKKYDNCWLALTDPRDVARIESKTVIITQEQRDTVPIPKSGQSQLGRWMSEEDFEKAFNARFPGCMKGRTMYVIPFSMGPLGSPLAKIGIELTDSPYVVASMRIMTRMGTSVLEALGDGEFIKCLHSVGCPLPLKKPLVNNWACNPELTLIAHLPDRREIISFGSGYGGNSLLGKKCFALRIASRLAKEEGWLAEHMLILGITNPEGKKKYLAAAFPSACGKTNLAMMNPTLPGWKVECVGDDIAWMKFDAQGNLRAINPENGFFGVAPGTSVKTNPNAIKTIQKNTIFTNVAETSDGGVYWEGIDEPLAPGVTITSWKNKEWRPQDEEPCAHPNSRFCTPASQCPIIDPAWESPEGVPIEGIIFGGRRPAGVPLVYEALSWQHGVFVGAAMRSEATAAAEHKGKVIMHDPFAMRPFFGYNFGKYLAHWLSMAHRPAAKLPKIFHVNWFRKDKNGKFLWPGFGENSRVLEWMFGRIEGEDSAKLTPIGYVPKEDALNLKGLGDVNVEELFGISKEFWEKEVEEIDKYLEDQVNADLPYEIERELRALKQRISQM
kcat [9]: 19 ± 0.8 s⁻¹
kcat ([7]; Wild-type, OAA + GTP → PEP + GDP + CO2, 25 °C): 54 ± 0.2 s⁻¹
Km ([10]; other: Wild-type): 117 ± 11 µM
kcat ([10]; other: Wild-type): 2.3 ± 0.1 s⁻¹
kcat/Km ([10]; other: Wild-type): 20000 M⁻¹ s⁻¹

B2: A467G PEPCK (rat cPEPCK mutant) (Rattus norvegicus; A467G) (protein)
chain: MPPQLHNGLDFSAKVIQGSLDSLPQEVRKFVEGNAQLCQPEYIHICDGSEEEYGRLLAHMQEEGVIRKLKKYDNCWLALTDPRDVARIESKTVIITQEQRDTVPIPKSGQSQLGRWMSEEDFEKAFNARFPGCMKGRTMYVIPFSMGPLGSPLAKIGIELTDSPYVVASMRIMTRMGTSVLEALGDGEFIKCLHSVGCPLPLKKPLVNNWACNPELTLIAHLPDRREIISFGSGYGGNSLLGKKCFALRIASRLAKEEGWLAEHMLILGITNPEGKKKYLAAAFPSACGKTNLAMMNPTLPGWKVECVGDDIAWMKFDAQGNLRAINPENGFFGVAPGTSVKTNPNAIKTIQKNTIFTNVAETSDGGVYWEGIDEPLAPGVTITSWKNKEWRPQDEEPCAHPNSRFCTPASQCPIIDPAWESPEGVPIEGIIFGGRRPAGVPLVYEALSWQHGVFVGAAMRSEATAGAEHKGKVIMHDPFAMRPFFGYNFGKYLAHWLSMAHRPAAKLPKIFHVNWFRKDKNGKFLWPGFGENSRVLEWMFGRIEGEDSAKLTPIGYVPKEDALNLKGLGDVNVEELFGISKEFWEKEVEEIDKYLEDQVNADLPYEIERELRALKQRISQM
kcat ([5]; A467G, PEP + CO2 + GDP → OAA + GTP, 25 °C): 1 ± 0.1 s⁻¹
kcat ([1]; A467G, OAA + GTP → PEP + GDP + CO2, 25 °C): 14 ± 0.1 s⁻¹
Km ([10]; other: A467G): 970 ± 118 µM
kcat ([10]; other: A467G): 1.3 ± 0.1 s⁻¹
kcat/Km ([10]; other: A467G): 1000 M⁻¹ s⁻¹

More lines, now with the values ahead:

change in KM, A467G vs WT (factor) ([1]; assay A, OAA→PEP): 1.4
decrease in kcat/KM, A467G vs WT ([1]; assay A, OAA→PEP): less than a factor of three
Molecule: Nc1nc2c(ncn2[C@@H]2O[C@H](COP(=O)(O)OP(=O)(O)OP(=O)(O)O)[C@@H](O)[C@H]2O)c(=O)[nH]1 [GTP, guanosine-5′-triphosphate]

change in affinity, A467G vs WT [2]: increases by less than a factor of two
Ki ([3]; Wild-type, assay B, against PEP, 25 °C): 2530 ± 13 µM
Molecule: O=C(O)COP(=O)(O)O [PGA, 2-phosphoglycolate]

change in affinity, A467G vs WT [2]: approximately a factor of eight
loss in binding energy / decreased stabilization in A467G vs WT ([2]; from oxalate Ki, extrapolated to the enolate intermediate): ~ 5.3 kJ mol^−1
Ki [3]: 106 ± 6 µM
Molecule: O=C(O)C(=O)O [oxalate]

KM of A467G as % of WT ([5]; assay B, PEP→OAA): 21% and ~ 21%
reduction in catalytic efficiency of A467G relative to WT ([5]; assay B, PEP→OAA): factor of four
Molecule: C=C(OP(=O)(O)O)C(=O)O [PEP, phosphoenolpyruvate]

pyruvate formation during the OAA→PEP reaction [6]: did not observe any pyrvuate formation
Km [7, 11]: 39 µM
kcat [7, 11]: 13 s⁻¹
Molecule: Nc1nc2c(ncn2[C@@H]2O[C@H](COP(=O)(O)OP(=O)(O)OP(O)(O)=S)[C@@H](O)[C@H]2O)c(=O)[nH]1 [GTPγS, guanosine 5′-O-[gamma-thio]triphosphate]

Km ([5]; A467G, PEP + CO2 + GDP → OAA + GTP, 25 °C, labelled substrate varied): 814 ± 98 µM
Km ([9]; labelled substrate varied): 1190 ± 109 µM
Molecule: O=C=O [CO2]
